# Like-named read-outs stand apart in the source and are kept apart here.
# Legend:
# [1] = water, cited from earlier work
# mustard algae [2] = assay: Remedial laboratory study on algae, change in turbidity; settings: for Change in Turbidity at active agent (ppm) five days post treatment: 5 ppm: 5 ppm active ingredient; for Change in Turbidity at active agent (ppm) five days post treatment: 5 ppm / Change in Turbidity at active agent (ppm) five days post treatment: 10 ppm: initial absorbance 0.10; for Change in Turbidity at active agent (ppm) five days post treatment: 10 ppm: 10 ppm active ingredient; for water turbidity: indicating killing of the mustard algae
# [3] = Margin of exposure versus NOEL (estimated total daily dose to a child in a swimming pool); settings: for Margin of Exposure vs NOEL (Target > 100): herbicides, Table A, ratio of NOEL to estimated daily dose, 10 ppm in pool water, child 22 kg, 3 hours per day; for Margin of Exposure vs NOEL: agricultural fungicides, Table B
# Method: The herbicide preferably has a margin of exposure versus no observed effect level (“NOEL”) value of greater than 10, more preferably greater than 50, especially greater than 80, and more especially greater than 99. The margin of exposure versus NOEL is determined by estimating the total daily dose of the herbicide to a child in a swimming pool and determining the ratio of the NOEL to this. The total daily exposure may be estimated as follows. Oral exposure is estimated by assuming that the swimmer is in the water 3 hours per day, and that the swimmer ingests 50 milliliters of pool water per hour of swimming. It is also assumed that the herbicide will be present in the pool water at a concentration of 10 parts per million, equivalent to 10 milligrams per liter of pool water. The daily oral exposure is therefore estimated as the product of the swimming duration, the ingestion rate, and the concentration in the pool water. Dermal exposure is estimated by assuming the swimmer is in the water 3 hours per day, that the total body surface area, 8800 square centimeters, is immersed in the water, and that the herbicide permeates the skin at a rate, expressed in centimeters per hour, predicted by a model for skin permeation based on chemical structure, the Skinperm model, developed by W. F. ten Berge. A short description of the Skinperm model, can be accessed at: http://home.wxs.nl/˜wtberge/, which is incorporated herein by reference. The daily dermal exposure is then estimated as the product of the permeation rate, the concentration of the herbicide in the pool water (expressed in milligrams per cubic centimeter), the swimming duration, and the total body surface area. The total daily exposure is estimated as the sum of the daily oral and daily dermal exposure. The daily dose, expressed in milligrams per kilogram bodyweight per day, is then estimated as the total daily exposure divided by an assumed body weight of 22 kilograms.
# [4] = agricultural fungicides, Table B
# [5] = Method: The margin of exposure versus NOEL is determined by estimating the total daily dose of the herbicide to a child in a swimming pool and determining the ratio of the NOEL to this. The total daily exposure may be estimated as follows. Oral exposure is estimated by assuming that the swimmer is in the water 3 hours per day, and that the swimmer ingests 50 milliliters of pool water per hour of swimming. It is also assumed that the herbicide will be present in the pool water at a concentration of 10 parts per million, equivalent to 10 milligrams per liter of pool water. The daily oral exposure is therefore estimated as the product of the swimming duration, the ingestion rate, and the concentration in the pool water. Dermal exposure is estimated by assuming the swimmer is in the water 3 hours per day, that the total body surface area, 8800 square centimeters, is immersed in the water, and that the herbicide permeates the skin at a rate, expressed in centimeters per hour, predicted by a model for skin permeation based on chemical structure, the Skinperm model, developed by W. F. ten Berge. A short description of the Skinperm model, can be accessed at: http://home.wxs.nl/˜wtberge/, which is incorporated herein by reference. The daily dermal exposure is then estimated as the product of the permeation rate, the concentration of the herbicide in the pool water (expressed in milligrams per cubic centimeter), the swimming duration, and the total body surface area. The total daily exposure is estimated as the sum of the daily oral and daily dermal exposure. The daily dose, expressed in milligrams per kilogram bodyweight per day, is then estimated as the total daily exposure divided by an assumed body weight of 22 kilograms.
# The margin of exposure versus RfD is determined by estimating the total daily dose of the herbicide to a child in a swimming pool, as described above, and determining the ratio of the RfD to this (i.e. margin of exposure/RfD).
# mustard algae [6] = assay: Preventative laboratory study on algae, visual growth score; settings: for Score @ ppm active agent: 0: 0 ppm; for Score @ ppm active agent: 0 / Score @ ppm active agent: 10 / Score @ ppm active agent: 15: 27° C.
# [7] = agricultural fungicides, Table B
# [8] = 10 ppm, visual score 0 to 4, 10 days
# [9] = 15 ppm, visual score 0 to 4, 10 days
# [10] = herbicides, Table A, 10 ppm in pool water, child 22 kg
Structure (SMILES),Change in Turbidity at active agent (ppm) five days post treatment: 5 ppm (mustard algae [2]; Table 2),Change in Turbidity at active agent (ppm) five days post treatment: 10 ppm (mustard algae [2]; Table 2),comments (Remedial Algae Control) (mustard algae [2]; Table 2),Margin of Exposure vs NOEL (Target > 100) [3],Margin of Exposure vs NOEL [3],Margin of Exposure vs. RfD [4],also measured
"Nc1cnn(-c2ccccc2)c(=O)c1Cl [Chloridazon, 5-amino-4-chloro-2-phenyl-3(2H)-pyridazinone]",+0.15,+0.05,Algistatic. More,–,–,–,"Solubility ([1]; herbicides, Table A): 340 mg/1"
COC(=O)c1cccc(C)c1S(=O)(=O)NC(=O)Nc1nc(OCC(F)(F)F)nc(N(C)C)n1 [Triflusulfuronmethyl],+0.04,+0.03,Algistatic.,33,–,–,"Solubility ([1]; herbicides, Table A): 110-11000 mg/1"
"CCCCc1c(C)nc(NCC)[nH]c1=O [Ethirimol, 5-butyl-2-ethylamino-6-methylpyrimidin-4-ol]",–,–,–,–,–,–,"Solubility [1, 7]: 250 mg/L"
"CCSC(=O)N(CC)C1CCCCC1 [Cycloate, S-ethyl cyclohexyl(ethyl)thiocarbamate]",0.00,−0.01,algicidal activity,–,1,0.001,water turbidity (mustard algae [2]; Table 2): decreased significantly
"CC1(C)CON(Cc2ccccc2Cl)C1=O [Clomazone, 2-[(2-chlorophenyl)methyl]-4,4-dimethyl-3-isoxazolidinone]",+0.10,+0.10,–,41,–,–,"Margin of Exposure vs. RfD (Target > 1) ([5]; human, 3 hours per day, 10 ppm): 0.02; Score @ ppm active agent: 0 (mustard algae [6]; visual score 0 to 4, 10 days): 4; Score @ ppm active agent: 10 (mustard algae [6]; [8]): 4; Score @ ppm active agent: 15 (mustard algae [6]; [9]): 3; Comments (Preventive Algae Control) (mustard algae [6]; Table 1): heavy growth"
"COCC(=O)N(c1c(C)cccc1C)C(C)C(=O)OC (racemic) [Metalaxyl, N-(2,6-dimethylphenyl)-N-(methoxyacetyl)-DL-alaninemethyl ester]",–,–,–,–,98,1,"Solubility [1, 7]: 8400 mg/L"
"C=CCOC(Cn1ccnc1)c1ccc(Cl)cc1Cl (stereo not drawn) [Imazalil, 1-[2-(2,4-dichlorophenyl)-2-(2-propenyloxy)ethyl]-1H-imidazole]",–,–,–,–,17,0.2,"Solubility [1, 7]: 1400 mg/L"
"CC(C)(C)C(O)C(Oc1ccc(Cl)cc1)n1cncn1 (stereo not drawn) [Triademenol, Beta-(4-chlorophenoxy)-alpha-(1,1-dimethylethyl)-1-1H-1,2,4-triazole-1-ethanol]",–,–,–,–,50,0.5,"Solubility [1, 7]: 260 mg/L"
"COC(=O)c1c(Cl)nn(C)c1S(=O)(=O)NC(=O)Nc1nc(OC)cc(OC)n1 [Halosulfuronmethyl, Methyl 5-{[(4,6-dimethoxy-2-pyrimidinyl)amino]carbonylaminosulfonyl}-3-chloro-1-methyl-1H-pyrazole-4-carboxylate]",–,–,–,133,–,–,"Margin of Exposure vs. RfD (Target > 1) [5, 10]: 1.3; Solubility ([1]; herbicides, Table A): 15 mg/1"
"N#Cc1c[nH]cc1-c1cccc2c1OC(F)(F)O2 [Fludioxonil, 4-(2,2-difluoro-1,3-bezodioxol-4-yl)-1Hpyrrole-3-carbonitrile]",–,–,–,–,44,0.4,–
"Cc1[nH]c(=O)n(C(C)(C)C)c(=O)c1Cl [Terbacil, 3-tert-Butyl-5-chloro-6-methyluracil]",−0.02,−0.02,algicidal activity,16,–,–,"Margin of Exposure vs. RfD (Target > 1) [5, 10]: 0.17; water turbidity (mustard algae [2]; Table 2): decreased significantly; Score @ ppm active agent: 0 (mustard algae [6]; visual score 0 to 4, 10 days): 0; Score @ ppm active agent: 10 (mustard algae [6]; [8]): 0; Score @ ppm active agent: 15 (mustard algae [6]; [9]): 0"
"CC1=C(C(=O)Nc2ccccc2)SCCO1 [Carboxin, 5,6-dihydro-2-methyl-N-phenyl-1,4-oxathiin-3-carboxamide]",0.01,−0.01,algicidal activity,–,116,1.2,water turbidity (mustard algae [2]; Table 2): decreased significantly
"CC(=O)O.CCCCCCCCCCCCNC(=N)N [Dodine, 1-dodecylguanidine acetate]",−0.03,−0.04,algicidal activity,–,17,0.02,water turbidity (mustard algae [2]; Table 2): decreased significantly
"CCCOC(=O)NCCCN(C)C.Cl [Propamocarb, Propyl 3-(dimethylamino)propylcarbamate-hydrochloride]",–,–,–,–,438,1.4,–
"CCC(=O)Nc1ccc(Cl)c(Cl)c1 [Propanil, N-(3,4-dichlorophenyl)propanamide]",−0.02,−0.03,algicidal activity,67,–,–,"Margin of Exposure vs. RfD (Target > 1) [5, 10]: 0.1; water turbidity (mustard algae [2]; Table 2): decreased significantly"
"CC(C)N1C(=O)c2ccccc2NS1(=O)=O [Bentazon, 3-isopropyl-1H-2,1,3-benzothiadiazin-4(3H)-one 2,2-dioxide]",–,–,–,41,–,–,"Margin of Exposure vs. RfD (Target > 1) [5, 10]: 0.4; Solubility ([1]; herbicides, Table A): 2300 mg/1"
"CC(C)(C)C(O)(CCc1ccc(Cl)cc1)Cn1cncn1 (stereo not drawn) [Tebuconazole, H-1,2,4-triazole-1-ethanol-alpha-[2-(4-chlorophenyl)-ethyl]-alpha-(1,1-dimethylethyl)]",–,–,–,–,13,0.4,"Turbidity @ 5 ppm active ingredient (Change in Turbidity at five days post treatment) (mustard algae [2]; 5 ppm, Table 4): +0.09; Turbidity @ 10 ppm active ingredient (Change in Turbidity at five days post treatment) (mustard algae [2]; 10 ppm, Table 4): +0.24; comments (Remedial Algae Control) (mustard algae [2]; Table 4): more effective; Score @ 10 ppm (mustard algae [6]; 10 ppm, visual score 0 to 4, 10 days, Table 3): 2; Score @ 15 ppm active ingredient (mustard algae [6]; 15 ppm, visual score 0 to 4, 10 days, Table 3): 1; Comments (Preventive Algae Control) (mustard algae [6]; Table 3, at 15 ppm): very little growth"
